Earlier results in US7074430B2, “Controlled release tramadol tramadol formulation” (Euro-Celtique S.A., priority 1994, dated 2006).

Details: value taken for the deconvolution technique

Q: For `COc1cccc([C@@]2(O)CCCC[C@H]2CN(C)C)c1` (racemic) [tramadol, (±)-trans-2-[(dimethylamino)methyl]-1-(3-methoxyphenyl) cyclohexanol], which elimination half life is on record?
A: 7.8 h
